In patent publication US20040156851A1, “HMGB1 combination therapies” (Critical Therapeutics, Inc., priority 2002, published 2004):

Key:
[1] = target: RAGE on RAW 264.7 cells (mouse (murine RAW 264.7 cells)) (UniProt Q62151); test: cell-based or functional assay
RAW 264.7 cells = test: TNF release from RAW 264.7 cells stimulated with HMGB1, mutants or B box peptides (L929 cytotoxicity bioassay); format: cell-based, murine; details: for TNF release by synthetic B box peptide fragments: synthetic peptide 10 μg/ml, 10 hours (FIG. 3)
Description: Murine macrophage-like RAW 264.7 cells (American Type Culture Collection, Rockville, Md.) were cultured in RPMI 1640 medium (Life Technologies, Grand Island, N.Y.) supplemented with 10% fetal bovine serum (Gemini, Catabasas, Calif.), penicillin and streptomycin (Life Technologies) and were used at 90% confluence in serum-free Opti-MEM I medium (Life Technologies, Grand Island, N.Y.). […] Polymyxin B was not used in experiments of synthetic peptide studies.
TNF release was measured by a standard murine fibroblast L929 (ATCC, American Type Culture Collection, Rockville, Md.) cytotoxicity bioassay (Bianchi et al., Journal of Experimental Medicine 183:927-936, 1996) with the minimum detectable concentration of 30 pg/ml. Recombinant mouse TNF was obtained from R&D system Inc., (Minneapolis, Minn.). Murine fibroblast L929 cells (ATCC) were cultured in DMEM (Life Technologies, Grand Island, N.Y.) supplemented with 10% fetal bovine serum (Gemini, Catabasas, Calif.), penicillin (50 units/ml) and streptomycin (50 μg/ml) (Life Technologies) in a humidified incubator with 5% CO2.
The effect of the mutants on TNF release from Murine macrophage-like RAW 264.7 cells (ATCC) was carried out as follows. RAW 264.7 cells were cultured in RPMI 1640 medium (Life Technologies, Grand Island, N.Y.) supplemented with 10% fetal bovine serum (Gemini, Catabasas, Calif.), penicillin and streptomycin (Life Technologies). Polymyxin (Sigma, St. Louis, Mo.) was added at 100 units/ml to suppress the activity of any contaminating LPS. Cells were incubated with 1 μg/ml of full length (wild-type) HMGB1 and each HMGB1 mutant protein in Opti-MEM I medium for 8 hours. Conditioned supernatants (containing TNF which had been released from the cells) were collected and TNF released from the cells was measured by a standard murine fibroblast L929 (ATCC) cytotoxicity bioassay (Bianchi et al., supra) with the minimum detectable concentration of 30 pg/ml. Recombinant mouse TNF was obtained from R & D Systems Inc., (Minneapolis, Minn.) and used as control in these experiments. Data in FIG. 1 are all presented as mean±SEM unless otherwise indicated. (N=6−10).
To further examine the effect of HMGB1 B box on cytokine production, varying amounts of HMGB1 B box were evaluated for the effects on TNF, IL-1B, and IL-6 production in murine macrophage-like RAW 264.7 cells. Conditioned media were harvested and measured for TNF, IL-1β and IL-6 levels. TNF levels were measured as described herein, and IL-1β and IL-6 levels were measured using the mouse IL-1β and IL-6 enzyme-linked immunosorbent assay (ELISA) kits (R&D System Inc., Minneapolis, Minn.) and N>5 for all experiments.
The kinetics of B box-induced TNF release were also examined. TNF release and TNF mRNA expression were measured in RAW 264.7 cells induced by B box polypeptide or GST tag polypeptide only (used as a control (vector)) (10 μg/ml) for 0 to 48 hours. Supernatants were analyzed for TNF protein levels by an L929 cytotoxicity assay (N=3-5) as described herein. For mRNA measurement, cells were plated in 100 mm plates and treated in Opti-MEM I medium containing B box polypeptide or the vector alone for 0, 4, 8, or 24 hours, as indicated in FIG. 2D. The vector only sample was assayed at the 4 hour time point. Cells were scraped off the plate and total RNA was isolated using the RNAzol B method in accordance with the manufacturer's instructions (Tel-Test “B”, Inc., Friendswood, Tex.). TNF (287 bp) was measured by RNase protection assay (Ambion, Austin, Tex.). Equal loading and the integrity of RNA was verified by ethidium bromide staining of the RNA sample on an agarose-formaldehyde gel. […] TNF mRNA expression was maximal at 4 hours and decreased at 8 and 24 hours. […] A similar study was carried out measuring TNF protein released from RAW 264.7 cells 0, 4, 8, 24, 32 or 48 hours after administration of B box or vector only (GST tag), using the L929 cytotoxicity assay described herein. […]

[2] = target: Recombinant full length human HMGB1 (wild type HMGB1) (human); test: cell-based or functional assay
[3] = tested on: Balb/c mice subjected to CLP; test: Cecal ligation and puncture (CLP) sepsis, survival of Balb/c mice; format: in vivo
Description: Cecal ligation and puncture (CLP) was performed as described previously (Fink and Heard, J. Surg. Res. 49:186-196, 1990; Wichmann et al., Crit. Care Med. 26:2078-2086, 1998; and Remick et al., Shock 4:89-95, 1995). Briefly, Balb/c mice were anesthetized with 75 mg/kg ketamine (Fort Dodge, Fort Dodge, Iowa) and 20 mg/kg of xylazine (Bohringer Ingelheim, St. Joseph, Mo.) intramuscularly. A midline incision was performed, and the cecum was isolated. A 6-0 prolene suture ligature was placed at a level 5.0 mm from the cecal tip away from the ileocecal valve.
The ligated cecal stump was then punctured once with a 22-gauge needle, without direct extrusion of stool. The cecum was then placed back into its normal intra-abdominal position. […] Mortality was recorded for up to 1 week after the procedure; survivors were followed for 2 weeks to ensure no late mortalities had occurred.
To determine whether the HMGB1 A box can inhibit the lethality of HMGB1 during sepsis, mice were subjected to cecal perforation and treated by administration of A box beginning 24 hours after the onset of sepsis. […] Survival was monitored twice daily for up to 2 weeks to ensure no late death occurred. […]
Passive immunization of critically ill septic mice with anti-HMGB1 antibodies was also assessed. […] Survival was monitored for 2 weeks. […]

[4] = tested on: HMGB1 induced TNF release; test: A box inhibition of HMGB1 induced TNF release from RAW 264.7 cells; format: cell-based, murine; details: co-addition with HMGB1, 16 hours, TNF ELISA (FIG. 4B)
Description: Weak agonists are by definition antagonists. […] This study was carried out as follows. Sub-confluent RAW 264.7 cells in 24-well dishes were treated with HMGB1 (1 μg/ml) and 0, 5, 10, or 25 μg/ml of A box for 16 hours in Opti-MEM I medium in the presence of polymyxin B (100 units/ml). The TNF-stimulating activity (assayed using the L929 cytotoxicity assay described herein) in the sample receiving no A box was expressed as 100%, and the inhibition by A box was expressed as percent of HMGB1 alone. […] Data in FIG. 4A are presented as mean±SD (n=2-3 independent experiments).
Antagonism of full length HMGB1 activity by HMGB1 A box or GST tag (vector control) was also determined by measuring TNF release from RAW 264.7 macrophage cultures stimulated by co-addition of A box with full length HMGB1. RAW 264.7 macrophage cells (ATCC) were seeded into 24-well tissue culture plates and used at 90% confluence. The cells were treated with HMGB1, and/or A boxes as indicated for 16 hours in Optimum I medium (Life Technologies, Grand Island, N.Y.) in the presence of polymyxin B (100 units/ml, Sigma, St. Louis, Mo.) and supernatants were collected for TNF measurement (mouse ELISA kit from R&D System Inc, Minneapolis, Minn.). TNF-inducing activity was expressed as a percentage of the activity achieved with HMGB1 alone. […]

Chain of RAGE on RAW 264.7 cells (mouse (murine RAW 264.7 cells)) (Q62151 23-402): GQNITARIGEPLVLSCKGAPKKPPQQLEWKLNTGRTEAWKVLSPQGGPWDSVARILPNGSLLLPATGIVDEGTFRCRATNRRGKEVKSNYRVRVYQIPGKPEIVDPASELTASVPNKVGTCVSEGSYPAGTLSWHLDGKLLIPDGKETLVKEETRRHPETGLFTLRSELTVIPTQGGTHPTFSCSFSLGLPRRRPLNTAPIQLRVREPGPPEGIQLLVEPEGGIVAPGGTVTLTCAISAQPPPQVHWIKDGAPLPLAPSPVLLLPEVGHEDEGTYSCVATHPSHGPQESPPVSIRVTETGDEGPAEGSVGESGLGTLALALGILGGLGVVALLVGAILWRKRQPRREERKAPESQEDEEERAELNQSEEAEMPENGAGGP

Molecule: Recombinant full length human HMGB1 (wild type HMGB1) (from UniProt A9RA84 1-215) (ligand)
- decrease of HMGB1 (1 µg/ml) induced TNF release from RAW 264.7 cells by anti-RAGE antibody (25 µg/ml) [1]: 40%

Molecule: 45-64: Synthetic peptide fragment containing amino acids 45-64 of the HMGB1 B box (SEQ ID NO:20) (WNNTAADDKQPYEKKAAKLK; listed as Homo sapiens)
- TNF release by synthetic B box peptide fragments (RAW 264.7 cells): did not induce TNF release

Molecule: HMGB1 Amino terminus+A box mutant (human HMGB1 A box polypeptide) (from UniProt A9RA84 1-85)
- inhibition of HMGB1 (1 µg/ml) induced TNF release from RAW 264.7 cells, L929 cytotoxicity assay [2]: 7.5 µg/mL

Molecule: 30-49: Synthetic peptide fragment containing amino acids 30-49 of the HMGB1 B box (SEQ ID NO:20) (PGLSIGDVAKKLGEMWNNTA; listed as Homo sapiens)
- TNF release by synthetic B box peptide fragments (RAW 264.7 cells): did not induce TNF release

Molecule: 60-74: Synthetic peptide fragment containing amino acids 60-74 of the HMGB1 B box (SEQ ID NO:20) (AAKLKEKYEKDIAAY; listed as Homo sapiens)
- TNF release by synthetic B box peptide fragments (RAW 264.7 cells): did not induce TNF release

Molecule: 16-25: Synthetic peptide fragment containing amino acids 16-25 of the HMGB1 B box (SEQ ID NO:20) (LFCSEYRPKI; listed as Homo sapiens)
- TNF release by synthetic B box peptide fragments (RAW 264.7 cells): did not induce TNF release

Molecule: fkdpnapkrlpsafflfcse (FKDPNAPKRLPSAFFLFCSE; listed as Homo sapiens) [1-20-mer]
- TNF stimulating potency compared with full length B box and HMGB1 (RAW 264.7 cells; peptide 10 μg/ml vs B box 1 μg/ml, 10 hours): less potent than either the full length synthetic B box (1-74-mer), or full length HMGB1
- TNF release by synthetic B box peptide fragments (RAW 264.7 cells): TNF-stimulating activity was retained

B1: A box: Human HMGB1 mutant containing only the A box, SEQ ID NO:21 (A box SEQ ID NO:22) (protein, listed as Homo sapiens)
chain: MGKGDPKKPTGKMSSYAFFVQTCREEHKKKHPDASVNFSEFSKKCSERWKTMSAKEKGKFEDMAKADKARYEREMKTYIPPKGET
- outcome of animals ([3]; 60 μg/mouse): most died
- clinical behaviour of animals ([3]; 600 μg/mouse, vs vector controls or 60 μg): significantly more alert, active, and to resume feeding behavior
- effect on TNF stimulating activity of full length HMGB1 [4]: significantly attenuated the TNF stimulating activity of full length HMGB1
